Legend:
NCI-H358 (K-Ras G12C) = assay: CellTiter-Glo Cell Viability Assay; assay type: cell-based; conditions: Homo sapiens, NCI-H358, 120 h; H358, 5-day treatment
Procedure: Determination of Cell Viability in RAS Mutant Cancer Cell Lines
Protocol: CellTiter-Glo® Cell Viability Assay
Note—The following protocol describes a procedure for monitoring cell viability of K-Ras mutant cancer cell lines in response to a compound of the invention. Other RAS isoforms may be employed, though the number of cells to be seeded will vary based on cell line used.
Test compounds (132.5 nl) were directly dispensed into the assay plates containing cells. […] On day 5, assay plates and their contents were equilibrated to room temperature for approximately 30 minutes. […] Luminescence was measured using the PerkinElmer Enspire. Data were normalized by the following: (Sample signal/Avg. DMSO)*100. The data were fit using a four-parameter logistic fit.

NRAS Q61R = NRAS Q61R (Homo sapiens, UniProt P01111+P62937, Q61R); assay: Disruption of BRAF RBD interaction with Ras (FRET / MOA assay); assay type: biochemical; conditions: read-out: NRAS Q61R FRET data IC50
NRAS Q61R, sequence (P01111 whole entry Q61R): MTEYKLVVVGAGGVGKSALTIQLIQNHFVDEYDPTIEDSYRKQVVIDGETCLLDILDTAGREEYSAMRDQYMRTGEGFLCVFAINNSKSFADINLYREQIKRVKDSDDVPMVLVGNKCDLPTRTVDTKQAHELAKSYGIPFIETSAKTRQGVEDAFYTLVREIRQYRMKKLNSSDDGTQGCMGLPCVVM
NRAS Q61R, sequence (P62937 whole entry): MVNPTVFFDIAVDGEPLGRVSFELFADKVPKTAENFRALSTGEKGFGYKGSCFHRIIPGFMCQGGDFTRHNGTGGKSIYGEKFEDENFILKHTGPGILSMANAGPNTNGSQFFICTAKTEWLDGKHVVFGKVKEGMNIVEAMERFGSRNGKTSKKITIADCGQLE
Procedure: (§1) Compound is present in plate wells as a 10-point 3-fold dilution series starting at a final concentration of 30 μM. […] Compounds that facilitate disruption of a Ras:RAF complex are identified as those eliciting a decrease in the TR-FRET ratio relative to DMSO control wells.
(§2) Note—The following protocol describes a procedure for monitoring disruption of K-Ras G12C (GMP-PNP) binding to BRAF^RBD by a compound of the invention. This protocol may also be executed substituting other Ras proteins or nucleotides.
(§3) The purpose of this biochemical assay was to measure the ability of test compounds to facilitate ternary complex formation between a nucleotide-loaded K-Ras isoform and Cyclophilin A; the resulting ternary complex disrupts binding to a BRAF^RBD construct, inhibiting K-Ras signaling through a RAF effector. Data is reported as IC50 values.
(§4) Compound was present in plate wells as a 10-point 3-fold dilution series starting at a final concentration of 30 μM. […] Compounds that facilitate disruption of a K-Ras:RAF complex were identified as those eliciting a decrease in the TR-FRET ratio relative to DMSO control wells.

NRAS Q61K = NRAS Q61K (Homo sapiens, UniProt P01111+P62937, Q61K); assay: as above; assay type: biochemical; conditions: read-out: NRAS Q61K FRET data IC50
NRAS Q61K, sequence (P01111 whole entry Q61K): as the sequence (P01111 whole entry Q61R) above, with R61K counted along it
NRAS Q61K, sequence (P62937 whole entry): as the sequence (P62937 whole entry) above
Procedure: as §1, §2, §3, §4

SMILES	IC50 (NCI-H358 (K-Ras G12C)) [nM]	IC50 (NRAS Q61R) [nM]	IC50 (NRAS Q61K) [nM]
CCn1c(-c2cccnc2[C@H](C)OC)c2c3cc(ccc31)-c1csc(n1)C[C@H](NC(=O)[C@H](C(C)C)N(C)C(=O)N1CCN(C(C)=O)CC1)C(=O)N1CCC[C@H](N1)C(=O)OCC(C)(C)C2 (atropisomer, axis not shown) [Compound A291]	< 10	10 to 100	10 to 100
CCn1c(-c2cccnc2[C@H](C)OC)c2c3cc(ccc31)-c1csc(n1)C[C@H](NC(=O)[C@H](C(C)C)N(C)C(=O)N1CC(C3COC3)C1)C(=O)N1CCC[C@H](N1)C(=O)OCC(C)(C)C2 (atropisomer, axis not shown) [Compound A298]	< 10	–	–
CCn1c(-c2cccnc2[C@H](C)OC)c2c3cc(ccc31)-c1csc(n1)C[C@H](NC(=O)[C@H](C(C)C)N(C)C(=O)N1CC[C@@H]1C)C(=O)N1CCC[C@H](N1)C(=O)OCC(C)(C)C2 (atropisomer, axis not shown) [Compound A304]	< 10	10 to 100	10 to 100
CCn1c(-c2cccnc2[C@H](C)OC)c2c3cc(ccc31)-c1csc(n1)C[C@H](NC(=O)[C@H](C(C)C)N(C)C(=O)N1CCO[C@H](C)C1)C(=O)N1CCC[C@H](N1)C(=O)OCC(C)(C)C2 (atropisomer, axis not shown) [Compound A310]	< 10	–	10 to 100
CCn1c(-c2cccnc2[C@H](C)OC)c2c3cc(ccc31)-c1csc(n1)C[C@H](NC(=O)[C@H](C(C)C)N(C)C(=O)N1C[C@H]3COC[C@H]3C1)C(=O)N1CCC[C@H](N1)C(=O)OCC(C)(C)C2 (atropisomer, axis not shown) [Compound A312]	–	10 to 100	10 to 100
CCn1c(-c2cccnc2[C@H](C)OC)c2c3cc(ccc31)-c1csc(n1)C[C@H](NC(=O)[C@H](C(C)C)N(C)C(=O)N1CC(N3CCOCC3)C1)C(=O)N1CCC[C@H](N1)C(=O)OCC(C)(C)C2 (atropisomer, axis not shown) [Compound A338]	< 10	–	–
CCn1c(-c2cccnc2[C@H](C)OC)c2c3cc(ccc31)-c1csc(n1)C[C@H](NC(=O)[C@H](C(C)C)N(C)C(=O)N1CC(O)C1)C(=O)N1CCC[C@H](N1)C(=O)OCC(C)(C)C2 (atropisomer, axis not shown) [Compound A358]	< 10	–	10 to 100
CCn1c(-c2cccnc2[C@H](C)OC)c2c3cc(ccc31)-c1cc(O)cc(c1)C[C@H](NC(=O)[C@H](C(C)C)N(C)C(=O)[C@@H]1CCN(C(=O)OC)C1)C(=O)N1CCC[C@H](N1)C(=O)OCC(C)(C)C2 (atropisomer, axis not shown) [Compound A365]	< 10	–	–
CCn1c(-c2cccnc2[C@H](C)OC)c2c3cc(ccc31)-c1csc(n1)C[C@H](NC(=O)[C@H](C(C)C)N(C)C(=O)N1CCC1)C(=O)N1CCC[C@H](N1)C(=O)OCC(C)(C)C2 (atropisomer, axis not shown) [Compound A399]	< 10	10 to 100	10 to 100
CCn1c(-c2cccnc2[C@H](C)OC)c2c3cc(ccc31)-c1cc(O)cc(c1)C[C@H](NC(=O)[C@H](C(C)C)N(C)C(=O)[C@@H]1OCC[C@@H]1c1ccccc1)C(=O)N1CCC[C@H](N1)C(=O)OCC(C)(C)C2 (atropisomer, axis not shown) [Compound A415]	–	10 to 100	10 to 100
CCn1c(-c2cc(N3CCN(C)CC3)cnc2[C@H](C)OC)c2c3cc(ccc31)-c1csc(n1)C[C@H](NC(=O)[C@H](C(C)C)N(C)C(=O)[C@H]1CCCS1(=O)=O)C(=O)N1CCC[C@H](N1)C(=O)OCC(C)(C)C2 (atropisomer, axis not shown) [Compound A439]	< 10	–	–
CCn1c(-c2cccnc2[C@H](C)OC)c2c3cc(ccc31)-c1csc(n1)C[C@H](NC(=O)[C@H](C(C)C)N(C)C(=O)N(C)N(C)C)C(=O)N1CCC[C@H](N1)C(=O)OCC(C)(C)C2 (atropisomer, axis not shown) [Compound A454]	–	10 to 100	10 to 100
CCn1c(-c2cccnc2[C@H](C)OC)c2c3cc(ccc31)-c1csc(n1)C[C@H](NC(=O)[C@H](C(C)C)N(C)C(=O)N1CC(S(=O)(=O)N(C)C)C1)C(=O)N1CCC[C@H](N1)C(=O)OCC(C)(C)C2 (atropisomer, axis not shown) [Compound A551]	< 10	–	10 to 100
CCn1c(-c2cccnc2[C@H](C)OC)c2c3cc(ccc31)-c1cc(O)cc(c1)C[C@H](NC(=O)C1CCC3C1C3(F)F)C(=O)N1CCC[C@H](N1)C(=O)OCC(C)(C)C2 (stereo partly shown) [Compound A181]	–	> 10000	–
CCn1c(-c2cccnc2[C@H](C)OC)c2c3cc(ccc31)-c1csc(n1)C[C@H](NC(=O)[C@H](C(C)C)N(C)C(=O)N1CCN3CCOCC3C1)C(=O)N1CCC[C@H](N1)C(=O)OCC(C)(C)C2 (stereo partly shown) [Compound A296]	< 10	–	–
CO[C@@H](C)c1ncccc1-c1c2c3cc(ccc3n1CC(F)(F)F)-c1csc(n1)C[C@H](NC(=O)[C@H](C(C)C)N(C)C(=O)N1CC(N(C)C)C1)C(=O)N1CCC[C@H](N1)C(=O)OCC(C)(C)C2 [Compound A303]	< 10	–	–
CCn1c(-c2cccnc2[C@H](C)OC)c2c3cc(ccc31)-c1csc(n1)C[C@H](NC(=O)[C@H](C(C)C)N(C)C(=O)N1CCC(C(=O)C(F)(F)F)CC1)C(=O)C1CCC[C@H](N1)C(=O)OCC(C)(C)C2 [Compound A422]	–	10 to 100	10 to 100
CCn1c(-c2cccnc2[C@H](C)OC)c2c3cc(ccc31)-c1csc(n1)C[C@H](NC(=O)[C@H](C(C)C)N(C)C(=O)N1C3COCC1C3)C(=O)N1CCC[C@H](N1)C(=O)OCC(C)(C)C2 [Compound A540]	–	–	10 to 100

The remaining lines, values ahead:

IC50 (NCI-H358 (K-Ras G12C)) [nM]	IC50 (NRAS Q61R) [nM]	IC50 (NRAS Q61K) [nM]	SMILES
< 10	–	10 to 100	CCn1c(-c2cccnc2[C@H](C)OC)c2c3cc(ccc31)-c1csc(n1)C[C@H](NC(=O)[C@H](C(C)C)N(C)C(=O)N1CC3(CC(N4CC(F)C4)C3)C1)C(=O)N1CCC[C@H](N1)C(=O)OCC(C)(C)C2 (atropisomer, axis not shown) [Compound A457]
–	10 to 100	10 to 100	CCn1c(-c2cccnc2[C@H](C)OC)c2c3cc(ccc31)-c1csc(n1)C[C@H](NC(=O)[C@H](C(C)C)N(C)C(=O)N1CCOC3(COC3)C1)C(=O)N1CCC[C@H](N1)C(=O)OCC(C)(C)C2 (atropisomer, axis not shown) [Compound A475]
< 10	–	–	CCn1c(-c2cc(N3CCN(C)CC3)cnc2[C@H](C)OC)c2c3cc(ccc31)-c1csc(n1)C[C@H](NC(=O)[C@H](C(C)C)N(C)C(=O)[C@@H]1OCC[C@@H]1c1cccnc1)C(=O)N1CCC[C@H](N1)C(=O)OCC(C)(C)C2 (atropisomer, axis not shown) [Compound A490]
< 10	–	10 to 100	CCn1c(-c2cccnc2[C@H](C)OC)c2c3cc(ccc31)-c1csc(n1)C[C@H](NC(=O)[C@H](C(C)C)N(C)C(=O)N1CC([C@@H](CO)OC)C1)C(=O)N1CCC[C@H](N1)C(=O)OCC(C)(C)C2 (atropisomer, axis not shown) [Compound A514]
< 10	–	10 to 100	CCn1c(-c2cccnc2[C@H](C)OC)c2c3cc(ccc31)-c1csc(n1)C[C@H](NC(=O)[C@H](C(C)C)N(C)C(=O)N1CC([C@H](CO)OC)C1)C(=O)N1CCC[C@H](N1)C(=O)OCC(C)(C)C2 (atropisomer, axis not shown) [Compound A515]
< 10	–	10 to 100	CCn1c(-c2cccnc2[C@H](C)OC)c2c3cc(ccc31)-c1csc(n1)C[C@H](NC(=O)[C@H](C(C)C)N(C)C(=O)N1CC(C(=O)N3CCOCC3)C1)C(=O)N1CCC[C@H](N1)C(=O)OCC(C)(C)C2 (atropisomer, axis not shown) [Compound A543]
–	10 to 100	10 to 100	CCn1c(-c2cccnc2[C@H](C)OC)c2c3cc(ccc31)-c1csc(n1)C[C@H](NC(=O)[C@H](C(C)C)N(C)C(=O)N1CCC13COC3)C(=O)N1CCC[C@H](N1)C(=O)OCC(C)(C)C2 (atropisomer, axis not shown) [Compound A560]
–	10 to 100	10 to 100	CCn1c(-c2cccnc2[C@H](C)OC)c2c3cc(ccc31)-c1cc(O)cc(c1)C[C@H](NC(=O)[C@H](C(C)C)N(C)C(=O)[C@@H]1OCC[C@H]1c1ccccc1)C(=O)N1CCC[C@H](N1)C(=O)OCC(C)(C)C2 (atropisomer, axis not shown) [Compound A584]
< 10	–	10 to 100	CCn1c(-c2cccnc2[C@H](C)OC)c2c3cc(ccc31)-c1csc(n1)C[C@H](NC(=O)[C@H](C(C)C)N(C)C(=O)N1CCO[C@H](CN(C)C)C1)C(=O)N1CCC[C@H](N1)C(=O)OCC(C)(C)C2 (atropisomer, axis not shown) [Compound A590]
< 10	–	–	CCn1c(-c2cccnc2[C@H](C)OC)c2c3cc(ccc31)-c1csc(n1)C[C@H](NC(=O)[C@H](C(C)C)N(C)C(=O)N1CCN(C(=O)C3CC3)CC1)C(=O)N1CCC[C@H](N1)C(=O)OCC(C)(C)C2 (atropisomer, axis not shown) [Compound A607]
